From US10302660B2, “Methods useful for vitamin D deficiency and related disorders” (OPKO RENAL, LLC, priority 2008, dated 2019)
“Also recorded” adds a separate entry of the source.

Experiments:
[1] = test system: parathyroid hormone (PTH); experiment: Serum intact PTH (iPTH Elisa Kit) in adenine-fed rats treated with vitamin D compounds; type: in vivo; conditions: treated for one week, versus control-fed animals (FIG. 2)
Source text: To obtain an animal model of vitamin D deficiency, rats were fed an adenine-rich diet.

[2] = Vitamin D hormone status: 1,25-(OH)2-D3 level by mass spectrometry in adenine-fed rats; type: in vivo; conditions: versus control-fed animals (FIG. 3)
CYP24 [3] = experiment: CYP24 gene expression by real-time PCR in normal and adenine-induced uremic rats dosed with 1,25-dihydroxyvitamin D3; type: in vivo, Sprague-Dawley rats
Experimental: Sprague-Dawley rats were treated i.v. daily with vehicle or 0.5 mcg/kg 1,25-dihydroxyvitamin D3 for 1 week. Organs were collected 24 hours after the last dosing. CYP24 gene expression was determined by real-time PCR.
Sprague-Dawley rats were fed a standard diet (normal) or a uremia-inducing diet containing 0.75% adenine (uremic) for 4 weeks. Animals were then dosed i.v. daily with vehicle or 0.5 mcg/kg 1,25-dihydroxyvitamin D3 for 7 days. Organs were collected 24 hours after the final dosing. CYP24 gene expression was determined by real-time PCR and normalized to GAPDH levels. Relative expression values are normalized to the vehicle-treated group (relative expression=1).
“*” denotes a significant difference in CYP24 expression between vehicle and 1,25-dihydroxyvitamin D3 treatment in normal and uremic rats. “**” represents a significant difference between vehicle-treated normal and uremic rats. “ ? ” denotes significant difference in CYP24 induction levels between normal and uremic rats treated with 1,25-dihydroxyvitamin D3. Significance was set at a p value cutoff of <0.05. Data are presented as mean±SEM. Numerals above each bar signifies relative fold induction to normal-vehicle.
CYP24 and CYP27B1 expression was measured using the same protocol outlined above in Example 6 with respect to FIG. 11. Serum levels of 25(OH)D3 and 1,25-dihydroxyvitamin D3 were measured by LC-MS. Serum PTH was measured by ELISA IMMUTOPICS (San Clemente, Calif., USA) according to manufacturer's instructions. Briefly, serum samples were spiked with [26,27-^2H6] 25(OH)D3 or [25,26-^2H6] 1,25-dihydroxyvitamin D3 and dissolved in acetonitrile to serve as an internal standard. 1,25-dihydroxyvitamin D3 or 25(OH)D3 and internal standards were extracted from serum using Accubond II ODS-C18 100 mg, 1 mL SPE cartridges (Agilent Technologies). The collected fractions were evaporated to dryness under a steady stream of nitrogen gas and the residues reconstituted in 50 μL of methanol/H2O (80/20; v/v) and analyzed using LC-MS/MS (Waters Alliance HPLC—Waters Quattro Ultima mass spectrometer). […]

[4] = Serum 25(OH)D3 by LC-MS in uremic rats treated with 1,25-dihydroxyvitamin D3; type: in vivo, Sprague-Dawley rats; conditions: 0.5 mcg/kg i.v. daily for 7 days (FIG. 12)
Experimental: (§1) CYP24 and CYP27B1 expression was measured using the same protocol outlined above in Example 6 with respect to FIG. 11. Serum levels of 25(OH)D3 and 1,25-dihydroxyvitamin D3 were measured by LC-MS. Serum PTH was measured by ELISA IMMUTOPICS (San Clemente, Calif., USA) according to manufacturer's instructions. Briefly, serum samples were spiked with [26,27-^2H6] 25(OH)D3 or [25,26-^2H6] 1,25-dihydroxyvitamin D3 and dissolved in acetonitrile to serve as an internal standard. 1,25-dihydroxyvitamin D3 or 25(OH)D3 and internal standards were extracted from serum using Accubond II ODS-C18 100 mg, 1 mL SPE cartridges (Agilent Technologies). The collected fractions were evaporated to dryness under a steady stream of nitrogen gas and the residues reconstituted in 50 μL of methanol/H2O (80/20; v/v) and analyzed using LC-MS/MS (Waters Alliance HPLC—Waters Quattro Ultima mass spectrometer). Relative expression values are normalized to the vehicle-treated group (relative expression=1).

PTH = experiment: Serum PTH by ELISA in uremic rats treated with 1,25-dihydroxyvitamin D3; type: in vivo, Sprague-Dawley rats; conditions: 0.5 mcg/kg i.v. daily for 7 days (FIG. 12)
Experimental: as §1

CYP24 [5] = experiment: Kidney CYP24 mRNA (real-time PCR) in vitamin D deficient rats treated with 25-hydroxyvitamin D3; type: in vivo, Sprague Dawley rats; conditions: vitamin D deficient animals after treatment; 0.6, 3 or 18 mcg/kg daily for two weeks (FIG. 17)
Experimental: Sprague Dawley rats were fed either a normal diet or a vitamin D deficient diet for a period of four weeks. Animals were then injected daily for two weeks with either 25-hydroxyvitamin D3 at 0.6, 3, or 18 mcg/kg or vehicle as per the axis label in FIG. 17. Kidneys were collected 24 hours after the last injection and CYP24 mRNA levels were measured by real-time PCR.

CYP24 [6] = experiment: Kidney CYP24 mRNA (real-time PCR) in uremic (adenine) vitamin D deficient rats treated with 25-hydroxyvitamin D3; type: in vivo, Sprague Dawley rats; conditions: uremic vitamin D deficient rats after treatment; 0.6 or 18 mcg/kg daily for two weeks (FIG. 18)
Experimental: Sprague Dawley rats were fed either a normal diet (Adenine Vehicle group) or a vitamin D deficient diet (Vit. D def./Adenine Vehicle group) for a period of four weeks. Following this treatment, animals were orally administered, daily for two weeks, 100 mg of adenine. Animals were then injected daily for another two weeks with either 25-hydroxyvitamin D3 at 0.6 or 18 mcg/kg or vehicle as per the axis label in FIG. 18. Kidneys were collected 24 hours after the last injection and CYP24 mRNA levels were measured by real-time PCR.

[7] = 1,25-dihydroxyvitamin D3 levels in vitamin D deficient uremic versus vitamin D deficient rats dosed with 25-hydroxyvitamin D; type: in vivo; conditions: after dosing for two weeks; vitamin D deficient uremic rats compared to vitamin D deficient animals (FIG. 19)
CYP24 [8] = experiment: CYP24 induction (real-time PCR) in HEK cells with 1,25-dihydroxyvitamin D3 alone or with CYP24 inhibitor; type: cell-based; conditions: 10 nM inhibitor with 10 nM 1,25-dihydroxyvitamin D3, 6, 24, 48 and 72 hours (FIG. 14)
Experimental: HEK cells were seeded at 25,000 cells per well (24-well plate) and incubated with 1,25-dihydroxyvitamin D3 (10 nM) alone or with a CYP24 inhibitor (MK-24(S)—S(O)(NH)-Ph-1, see U.S. Pat. No. 7,101,865, compound I(a)) (10 nM) for 6, 24, 48 and 72 hours. Cells were collected and RNA was prepared using TRIZOL® reagent. CYP24 was quantified using real-time PCR.

HEK cells = experiment: [3H]-thymidine incorporation in HEK cells, 1,25-dihydroxyvitamin D3 with CYP24 inhibitor; type: cell-based; conditions: cultured HEK cells, inhibitor at 0, 1, 10 and 50 nM (FIG. 15)
Experimental: HEK cells were transferred into 96-well plates at 2000 cells/well density. After 2 days of growth in 96-well plates the cells were treated with 1,25-dihydroxyvitamin D3 at the final concentrations 10^−6-10^−11 M in combination with the MK-24(S)—S(O)(NH)-Ph-1 compound with the varied final concentration of 0, 1, 10 and 50 nM. After overnight treatment [^3H]-thymidine was added to cells, […]/well in KGM media for 16 h. The radioactivity incorporation was counted using a scintillation counter after the addition of […] of scintillation fluid. The data were represented as an incorporation of thymidine in cpm depending on 1,25-dihydroxyvitamin D3 concentration. Each data point represents at least 4 independent trials.

CYP24 [9] = experiment: CYP24 RNA expression in HPK1a-ras cells, 1,25-dihydroxyvitamin D3 with or without FGF23; type: cell-based; conditions: 100 ng/mL FGF23 with 0, 1, 10, 100 nM calcitriol, after 8 hours (FIG. 16)
Experimental: HPK1a-ras cells were treated with 0, 1, 10, and 100 nM of 1,25-dihydroxyvitamin D3 (calcitriol), with or without 100 ng/mL of FGF23, and CYP24 RNA expression was measured after 8 hours.

Q: For C=C1/C(=C\C=C2/CCC[C@]3(C)[C@@H]([C@H](C)/C=C/[C@H](C)C(C)(C)O)CC[C@@H]23)C[C@@H](O)C[C@@H]1O [1,25-(OH)2-D2, 1,25-dihydroxyvitamin D2], which iPTH level [1] is on record?
A: Its iPTH level is “restored to a level similar to control-fed animals”.

Q: What about the “1,25-(OH)2-D3 levels (vitamin D hormone status)” value [2] of the same molecule?
A: Its value is “did not significantly affect”.

Q: Which results are given for C=C1/C(=C\C=C2/CCC[C@]3(C)[C@@H]([C@H](C)CCCC(C)(C)O)CC[C@@H]23)C[C@@H](O)C[C@@H]1O [1,25-(OH)2-D3, 1,25-dihydroxyvitamin D3]?
A: iPTH level [1]: restored to a level similar to control-fed animals; 1,25-(OH)2-D3 levels (vitamin D hormone status) [2]: restored to the level of control-fed animals; induced expression of CYP24 (CYP24 [3]; parathyroid gland, uremic compared to normal animals, 0.5 mcg/kg i.v. daily for 7 days (FIG. 11)): significantly induced; also recorded: markedly greater; CYP24 gene expression (CYP24 [3]; tissues from both normal and uremic rats, 0.5 mcg/kg i.v. daily): strongly induced; CYP24 expression (CYP24 [3]; uremic rats, 0.5 mcg/kg i.v. daily for 7 days (FIG. 12)): drastically induces; serum 25-(OH)D3 levels [4]: reduction; PTH (PTH): reduction

Q: For C=C1CC[C@H](O)C/C1=C/C=C1\CCC[C@]2(C)[C@@H]([C@H](C)CCCC(C)(C)O)CC[C@@H]12 [25-OH-D3, 25-hydroxyvitamin D3], which iPTH level [1] is on record?
A: The iPTH level was “restored to a level similar to control-fed animals”.

Q: And the “1,25-(OH)2-D3 levels (vitamin D hormone status)” value [2]?
A: The value was “did not significantly affect”.

Q: And the CYP24 levels (CYP24 [5])?
A: The CYP24 levels was “increase to normal or higher levels”.

Q: What about the CYP24 levels (CYP24 [6]) of the same molecule?
A: Its CYP24 levels is “do not increase”.

Q: What about the “levels of 1,25-dihydroxyvitamin D3” value [7] of the same molecule?
A: The value was “lower”.

Q: What does the source list for C=C1/C(=C\C=C2/CCC[C@]3(C)[C@@H]([C@H](C)CCC[S@](=N)(=O)c4ccccc4)CC[C@@H]23)C[C@@H](O)C[C@@H]1O [MK-24(S)—S(O)(NH)-Ph-1, (5Z,7E)-(1S,3R)-24-(S)-phenylsulfoximine-25-nor-9,10-seco-5,7,10(19)-cholestatriene-1,3-diol]?
A: CYP24 induction by 1,25-dihydroxyvitamin D3 in the presence of CYP24 inhibitor (CYP24 [8]): markedly extended; enhancement of the anti-proliferative effects of 1,25-dihydroxyvitamin D3 (HEK cells): approximately 3 orders of magnitude

B1: FGF23: fibroblast growth factor-23 (protein, UniProt Q9GZV9 25-251, looked up)
Fibroblast growth factor 23: YPNASPLLGSSWGGLIHLYTATARNSYHLQIHKNGHVDGAPHQTIYSALMIRSEDAGFVVITGVMSRRYLCMDFRGNIFGSHYFDPENCRFQHQTLENGYDVYHSPQYHFLVSLGRAKRAFLPGMNPPPYSQFLSRRNEIPLIHFNTPIPRRHTRSAEDDSERDPLNVLKPRARMTPAPASCSQELPSAEDNSPMASDPLGVVRGGRVNTHAGGTGPEGCRPFAKFI
Q: For B1, which “CYP24 RNA production, effect with 1,25-dihydroxyvitamin D3” value (CYP24 [9]) is on record?
A: The value was “synergizes”.
